Test results published in PubChem BioAssay AID256 (DTP/NCI, 2004).
Several values for one entry are separate records, joined by “and”; a condition that tells them apart may be missing. Equal values may be shown once. Inconclusive results and toxic doses are left out. The calls were made as follows: active = survival T/C of 150% or more; inactive = T/C below 125% in these data.

Tested on: CD2F1 mice, L1210 leukemia ip, survival T/C
Assay: NCI In Vivo Anticancer Drug Screen. Data for tumor model L1210 Leukemia (intraperitoneal) in CD2F1 (CDF1) mice
Details: endpoint: mean survival time, higher = longer survival
In short: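 Transplantable tumor in mice; compound-treated vs vehicle-treated groups. Read-out = treated/control ratio of the measured endpoint.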

[1] = dose: 100.0 mg/kg/injection, schedule: Q01DX001 (ip), vehicle: saline
[2] = dose: 200.0 mg/kg/injection, schedule: Q01DX001 (ip), vehicle: saline
[3] = dose: 100.0 mg/kg/injection, schedule: Q01DX009 (ip), vehicle: saline
[4] = dose: 200.0 mg/kg/injection, schedule: Q01DX009 (ip), vehicle: saline
[5] = dose: 100.0 mg/kg/injection, schedule: Q04DX002 (ip), vehicle: saline with Tween-80
[6] = dose: 100.0 mg/kg/injection, schedule: Q04DX003 (ip), vehicle: saline with Tween-80
[7] = dose: 200.0 mg/kg/injection, schedule: Q04DX003 (ip), vehicle: saline with Tween-80
[8] = dose: 400.0 mg/kg/injection, schedule: Q04DX003 (ip), vehicle: saline with Tween-80
[9] = dose: 50.0 mg/kg/injection, schedule: Q01DX009 (ip), vehicle: saline with Tween-80
[10] = dose: 100.0 mg/kg/injection, schedule: Q01DX009 (ip), vehicle: saline with Tween-80
[11] = dose: 200.0 mg/kg/injection, schedule: Q01DX009 (ip), vehicle: saline with Tween-80
[12] = dose: 100.0 mg/kg/injection, schedule: Q01DX001 (ip), vehicle: carboxymethylcellulose (CMC)
[13] = dose: 200.0 mg/kg/injection, schedule: Q01DX001 (ip), vehicle: carboxymethylcellulose (CMC)
[14] = dose: 400.0 mg/kg/injection, schedule: Q01DX001 (ip), vehicle: carboxymethylcellulose (CMC)
[15] = dose: 25.0 mg/kg/injection, schedule: Q01DX009 (ip), vehicle: saline with Tween-80

Measured: T/C

C=CS(C=C)=NS(=O)(=O)c1ccc(C)cc1
inactive: dose: 1.56 mg/kg/injection, schedule: Q01DX009 (ip), vehicle: Klucel (hydroxypropylcellulose) (HPC) 97 % of control and 107 % of control | dose: 3.12 mg/kg/injection, schedule: Q01DX009 (ip), vehicle: Klucel (hydroxypropylcellulose) (HPC) 100 % of control and 105 % of control | dose: 6.25 mg/kg/injection, schedule: Q01DX009 (ip), vehicle: Klucel (hydroxypropylcellulose) (HPC) 95 % of control and 103 % of control | dose: 12.5 mg/kg/injection, schedule: Q01DX009 (ip), vehicle: Klucel (hydroxypropylcellulose) (HPC) 100 % of control and 107 % of control | dose: 25.0 mg/kg/injection, schedule: Q01DX009 (ip), vehicle: Klucel (hydroxypropylcellulose) (HPC) 97 % of control and 105 % of control

NCC1CC2C=CC1C2 (centres undefined)
inactive: [1] 100 % of control | [2] 93 % of control

Nc1cc(OCC(=O)O)c(Cl)cc1Cl
inactive: dose: 50.0 mg/kg/injection, schedule: Q01DX009 (ip), vehicle: Klucel (hydroxypropylcellulose) (HPC) 96 % of control | dose: 100.0 mg/kg/injection, schedule: Q01DX009 (ip), vehicle: Klucel (hydroxypropylcellulose) (HPC) 89 % of control | dose: 200.0 mg/kg/injection, schedule: Q01DX009 (ip), vehicle: Klucel (hydroxypropylcellulose) (HPC) 93 % of control

O=C(C=[As](c1ccccc1)(c1ccccc1)c1ccccc1)c1ccccc1
inactive: dose: 75.0 mg/kg/injection, schedule: Q01DX001 (ip), vehicle: other 91 % of control | dose: 150.0 mg/kg/injection, schedule: Q01DX001 (ip), vehicle: other 100 % of control | dose: 300.0 mg/kg/injection, schedule: Q01DX001 (ip), vehicle: other 91 % of control

CC1(C)N=C(N)N=C(N)N1c1ccc(OCCCNC(=O)Nc2cccc(S(=O)(=O)F)c2)c(Cl)c1
inactive: [3] 116 % of control | [4] 92 % of control

O=S1(=O)CCCCN1c1ccccn1
inactive: [5] 102 % of control | dose: 200.0 mg/kg/injection, schedule: Q04DX002 (ip), vehicle: saline with Tween-80 94 % of control | dose: 400.0 mg/kg/injection, schedule: Q04DX002 (ip), vehicle: saline with Tween-80 105 % of control

O=C(O)CCC(=O)c1ccc([N+](=O)[O-])cc1
inactive: [1] 101 % of control | [2] 97 % of control | dose: 400.0 mg/kg/injection, schedule: Q01DX001 (ip), vehicle: saline 97 % of control

O=[N+]([O-])c1ccc(/C=C/C=C/C2(CCl)OCCO2)cc1
inactive: dose: 100.0 mg/kg/injection, schedule: Q01DX001 (ip), vehicle: Klucel (hydroxypropylcellulose) (HPC) 100 % of control | dose: 200.0 mg/kg/injection, schedule: Q01DX001 (ip), vehicle: Klucel (hydroxypropylcellulose) (HPC) 112 % of control | dose: 400.0 mg/kg/injection, schedule: Q01DX001 (ip), vehicle: Klucel (hydroxypropylcellulose) (HPC) 100 % of control

CC(=O)CCCCOC(C)=O
inactive: [6] 101 % of control | [7] 101 % of control | [8] 98 % of control

CC(O)c1ccc[n+](CCc2cn(C)c3ccccc23)c1 (centres undefined)
inactive: dose: 6.25 mg/kg/injection, schedule: Q01DX009 (ip), vehicle: saline 97 % of control | dose: 6.25 mg/kg/injection, schedule: Q04DX003 (ip), vehicle: saline 94 % of control | dose: 12.5 mg/kg/injection, schedule: Q01DX009 (ip), vehicle: saline 96 % of control | dose: 12.5 mg/kg/injection, schedule: Q04DX003 (ip), vehicle: saline 92 % of control | dose: 25.0 mg/kg/injection, schedule: Q01DX009 (ip), vehicle: saline 105 % of control | dose: 25.0 mg/kg/injection, schedule: Q04DX003 (ip), vehicle: saline 92 % of control

Cc1cccc(CC(F)(F)F)c1
inactive: [6] 102 % of control | [7] 100 % of control | [8] 89 % of control

O=S(=O)(OCC(COS(=O)(=O)c1ccccc1)(COS(=O)(=O)c1ccccc1)COS(=O)(=O)c1ccccc1)c1ccccc1
inactive: [9] 96 % of control | [10] 97 % of control | [6] 86 % of control | [11] 95 % of control | [7] 89 % of control

CC(=O)N(c1c(F)c(F)cc(F)c1F)c1c(F)c(F)cc(F)c1F
inactive: [10] 95 % of control | [6] 104 % of control | [11] 103 % of control | [7] 102 % of control | dose: 400.0 mg/kg/injection, schedule: Q01DX009 (ip), vehicle: saline with Tween-80 95 % of control | [8] 98 % of control

NC(=O)N(CCO)CCO
inactive: [3] 111 % of control | [4] 107 % of control | dose: 400.0 mg/kg/injection, schedule: Q01DX009 (ip), vehicle: saline 101 % of control

CC(=O)NC1C=CC(=O)O1 (centres undefined)
inactive: dose: 18.75 mg/kg/injection, schedule: Q01DX001 (ip), vehicle: saline 121 % of control | dose: 37.5 mg/kg/injection, schedule: Q01DX001 (ip), vehicle: saline 119 % of control

CCOC(=O)Nc1cnc2nc[nH]c2c1N(C)C
inactive: [12] 104 % of control | [13] 104 % of control | [14] 124 % of control

Clc1cc(Cl)cc(-c2cc(Cl)cc(Cl)c2)c1
inactive: [12] 101 % of control | [13] 92 % of control | [14] 95 % of control

C=CC(C)(C)S(=O)[O-].[C-]#[O+].[C-]#[O+].[C-]#[O+].[Mn].[c-]1[c-][c-][cH-][c-]1
inactive: dose: 25.0 mg/kg/injection, schedule: Q04DX002 (ip), vehicle: saline with Tween-80 93 % of control | dose: 50.0 mg/kg/injection, schedule: Q04DX002 (ip), vehicle: saline with Tween-80 86 % of control | [5] 93 % of control

CCCCCCCCCCCCCC#CC(=O)O
inactive: dose: 3.12 mg/kg/injection, schedule: Q01DX009 (ip), vehicle: saline with Tween-80 101 % of control and 109 % of control | dose: 6.25 mg/kg/injection, schedule: Q01DX009 (ip), vehicle: saline with Tween-80 96 % of control and 98 % of control | dose: 12.5 mg/kg/injection, schedule: Q01DX009 (ip), vehicle: saline with Tween-80 91 % of control and 98 % of control | [15] 91 % of control and 98 % of control | [9] 91 % of control and 95 % of control | [10] 88 % of control

CN(C)Cc1cccc(CN(C)C)c1O
inactive: [1] 106 % of control

O=c1[nH]c(C(F)(F)F)nc2c1nc1n2CCC1
inactive: [15] 102 % of control | [9] 111 % of control | [10] 103 % of control

CNC(=O)n1ncnc1N
inactive: dose: 12.5 mg/kg/injection, schedule: Q01DX001 (ip), vehicle: carboxymethylcellulose (CMC) 95 % of control | dose: 25.0 mg/kg/injection, schedule: Q01DX001 (ip), vehicle: carboxymethylcellulose (CMC) 100 % of control | dose: 50.0 mg/kg/injection, schedule: Q01DX001 (ip), vehicle: carboxymethylcellulose (CMC) 95 % of control | [12] 91 % of control | [13] 93 % of control

O=[N+]([O-])c1cc([N+](=O)[O-])c(Cl)s1
inactive: dose: 12.5 mg/kg/injection, schedule: Q04DX003 (ip), vehicle: saline with Tween-80 92 % of control | dose: 25.0 mg/kg/injection, schedule: Q04DX003 (ip), vehicle: saline with Tween-80 91 % of control | dose: 50.0 mg/kg/injection, schedule: Q04DX003 (ip), vehicle: saline with Tween-80 88 % of control
